Laboratory results taken from publication PMC11760092, “Pretreatment with serine protease inhibitors impairs Leishmania amazonensis survival on macrophages” (Parasites & Vectors, 2025).
Where two headings read alike, the source gives them in different places.

What was measured:
[1] = test system: L. donovani serine proteases; parameters: method as in PMID 26040107; conditions: cited from earlier work
[2] = test system: L. donovani promastigotes; parameters: method as in PMID 26040107; conditions: cited from earlier work; for cell viability of L. donovani promastigotes: aprotinin 1 µM, benzamidine 1 mM, after 5 h, 10 h, 15 h and 20 h of incubation
[3] = test system: L. donovani in RAW 264.7 cells; parameters: method as in PMID 26040107; conditions: promastigotes pretreated 2 h; cited from earlier work
[4] = Cytotoxicity assay (MTT); assay type: cell-based, BALB/c mice; conditions: BALB/c, mouse
Experimental: To determinate the toxicity of the inhibitors on mammalian cells, peritoneal macrophages from BALB/c mice, obtained by peritoneal lavage, in concentration of 2 × 10^6 macrophages/mL, were adhered in 96-well culture plates overnight at 37 °C with 5% CO2. The inhibitors were then added in different concentrations and incubated for 72 h at 37 °C and 5% CO2. Cell viability was also assessed by the MTT method. Cytotoxic concentration of 50% of macrophages (CC50) values were calculated using GraPadPrism 8 software. Three independent experiments in triplicate were performed.

[5] = test system: Leishmania amazonensis-WT promastigotes; assay: Antipromastigote assay (MTT); assay type: cell-based; conditions: 72 h of incubation; interval in brackets; read-out: Antileishmanial effect in Leishmania amazonensis IC50 Promastigote
Experimental: Leishmania amazonensis–WT promastigotes, in the logarithmic phase of growth, were transferred to 96-well culture plates (final concentration 2 × 10^6 cells/mL) and exposed to different concentrations of inhbitors during 72 h at 25 °C. The cell viability was evaluated by the 3-(4,5-dimethylthiazol-2-yl)-2,5 diphenyltetrazolium bromide (MTT) method (obtained from Sigma-Aldrich). The inhibitory concentration of 50% of parasite growth (IC50) values were calculated using GraphPad Prism 8 software […]. Three independent experiments in triplicate were performed. Amphotericin B (Cristália, São Paulo, SP, Brazil) was used as a reference drug.

[6] = test system: Leishmania amazonensis-RFP promastigotes; assay: Viability of promastigotes after 1 h of treatment with inhibitors; assay type: cell-based; conditions: 1 h treatment, washed; for viability of promastigotes after 1 h of treatment, compared with the control: 0 h, 24 h, 48 h and 72 h of incubation
Experimental: Leishmania amazonensis-RFP promastigotes were treated with different concentrations of inhibitors during 1 h at 25 °C and were washed with PBS. Then, these cells had their viability determined by fluorescence analysis using a spectrofluorimeter (time = 0 h) and were also reincubated in complete RPMI medium for subsequent analysis of cell viability after 24 h, 48 h, and 72 h (times = 24 h, 48 h, and 72 h) by fluorescence analysis.

[7] = test system: L. amazonensis in peritoneal macrophages; assay: Promastigote pretreatment and infection of peritoneal macrophages; assay type: cell-based, Leishmania amazonensis; conditions: for conversion of promastigotes into amastigotes: pretreated parasites (PF-429242 3.2 µM, TPCK 30 µM); for number of intracellular amastigotes (Giemsa, Supplementary Fig. 1): pretreatment with PF-429242 3.2 µM or TPCK 30 µM; for entry of promastigotes into macrophages: promastigotes pretreated 1 h, 0 h after 4 h interaction
Experimental: (§1) Leishmania amazonensis-RFP promastigotes were pretreated with different concentrations of inhbitors during 1 h at 25 °C. The cells were washed with PBS and used to infect peritoneal macrophages from BALB/c mice (10:1 ratio), not pretreated or pretreated with 0.5 ng/mL IFN-γ overnight, in 24-well plates. After 4 h of interaction, the plates were washed with PBS and (1) scraped to remove attached cells and read using a spectrofluorimeter (time = 0 h) or (2) incubated at 33 °C with 5% CO2 for 24 h, 48 h, and 72 h for later scraping and reading (times = 24 h, 48 h, and 72 h). Three experiments were performed, each one with three replicates.
The same experiment was repeated, but using 13 mm glass coverslips in 24-well plates. The fixation with ethanol and staining with Giemsa were performed. Subsequently, the slides were examined in an optical microscope (Olympus BX53, Shinjuku, Tokyo, Japan) and photographed (Olympus DP73, Shinjuku, Tokyo, Japan).

[8] = test system: L. amazonensis in peritoneal macrophages prestimulated with IFN-γ; assay: Promastigote pretreatment and infection of macrophages prestimulated with IFN-γ; assay type: cell-based, Leishmania amazonensis; conditions: macrophages prestimulated with 0.5 ng/mL IFN-γ overnight; promastigotes pretreated 1 h
Experimental: as §1

[9] = test system: NO production by host macrophages; assay: Determination of nitric oxide (NO) levels (Griess method); assay type: cell-based, BALB/c mice; conditions: supernatant of macrophages infected with promastigotes pretreated for 1 h
Experimental: Supernatant from cultures of L. amazonensis-infected macrophages, in which promastigotes were pretreated or not with PF-429242 or TPCK, was collected, and NO levels were determined by the Griess method. NO levels were determined in aliquots of 50 µL of the supernatant, to which 50 µL of the Griess reagent were added (Griess Reagent: 1% sulfanilamide in 2.5% of H3PO4 + 0.1% N-1-diidrocloride naftiletilenodiamine in 2.5% H3PO4), in a 96-well microplate. Nitrite content was quantified by comparison with a sodium nitrite standard curve. The absorbance was measured at 540 nm using a spectrophotometer (Multiskan EX, Thermo Electron Corporation, Vantaa, Finland). The assays were carried out in duplicate and three independent experiments were realized. Macrophages prestimulated with 0.5 ng/mL IFN-γ overnight and infected with L. amazonensis promastigotes without pretreatment were used as positive controls.

[10] = test system: L. amazonensis serine proteases; assay: Enzymatic assay on promastigote lysate with substrate ABZ-V-F-R-S-L-K-Q EDDnp; assay type: biochemical, Leishmania amazonensis; conditions: first 10 min; for enzymatic activity of L. amazonensis serine proteases: 2.5 µM inhibitor
Experimental: The enzymatic assay was conducted in a final volume of 200 µL per well, containing 1 µM of substrate, supernatant of lysate of 3.7 × 10^6 parasites, 2.5 µM of inhibitors (PF-429242 and TPCK) or 3 µM of E-64 in Tris-buffered pH 8. Substrate ABZ-V-F-R-S-L-K-Q EDDnp was used, which was provided by Dr. Luiz Juliano Neto from the Department of Biophysics of UNIFESP-EPM and is described in Alves, L.C. et al.. The lysate was prepared with promastigotes in stationary phase of growth, washed three times with PBS pH 7.2, and in the last wash it was resuspended in Tris-buffered pH 8 with 1% NP40. The parasites were submitted to five rapid freeze–thaw cycles in liquid nitrogen. The lysate was centrifuged at 20,000g for 10 min at […]. The supernatant was stored at −20 °C until use. The read was carried out using the spectrofluorimeter SoftMax M3 with excitation/emission of 320/420 nm.

[11] = test system: peritoneal macrophages from BALB/c mice; parameters: method as in PMID 35678670, PMID 33584607, PMID 35890269; conditions: 72 h of incubation; previously published data (*); cited from earlier work
[12] = test system: Leishmania amazonensis-WT promastigotes; parameters: method as in PMID 35678670, PMID 33584607, PMID 35890269; conditions: 72 h of incubation; previously published data (*); read-out: Antileishmanial effect in Leishmania amazonensis IC50 Promastigote; cited from earlier work
[13] = test system: L. amazonensis (RFP) amastigotes; parameters: method as in PMID 35678670, PMID 33584607, PMID 35890269; conditions: 72 h of incubation; previously published data (*); read-out: Antileishmanial effect in Leishmania amazonensis IC50 Amastigote; cited from earlier work
[14] = test system: L. amazonensis promastigotes; parameters: method as in PMID 17726617; conditions: 24 h, cited from earlier work
[15] = test system: L. amazonensis promastigotes and amastigotes; conditions: cited from earlier work
[16] = test system: L. amazonensis; conditions: mice infected with L. amazonensis; cited from earlier work
[17] = test system: L. amazonensis (RFP) amastigotes; assay: Antiamastigote assay (RFP fluorescence, infected peritoneal macrophages); assay type: cell-based; conditions: Leishmania amazonensis, Peritoneal macrophage; 72 h of incubation; interval in brackets; read-out: Antileishmanial effect in Leishmania amazonensis IC50 Amastigote
Experimental: Peritoneal macrophages from BALB/c mice were obtained by peritoneal lavage and distributed in 24-well plates at 2 × 10^6 cells/mL in RPMI medium (Cultilab) containing 10% FBS and a 0.5% penicillin and streptomycin solution (complete RPMI). The plates were incubated for 1 h at 37 °C and 5% CO2, washed with phosphate-buffered saline (PBS), and then reincubated in complete RPMI medium overnight. The cells were washed again with PBS and infected with stationary growth phase L. amazonensis (RFP) promastigotes at a 10:1 ratio for 4 h at 33 °C. The plates were washed with PBS and the inhibitors were added at different concentrations and incubated for 72 h. After this time, each well was scraped to remove attached cells and the reading was taken with a spectrofluorimeter (FLx800, BioTek Instruments, Winooski, VT, USA) at 530 nm and 590 nm of excitation and emission, respectively. […] All assays were performed in triplicate and repeated three times. Results were calculated as the percentage of amastigote survival compared with the nontreated control group, and IC50 values were determined using GraphPad Prism 8 software.

Molecule | cell viability of L. donovani promastigotes [2] | intracellular survival of the parasites (ranking of inhibitors) [3] | IC50 [5] | viability of promastigotes after 1 h of treatment, compared with the control [6] | conversion of promastigotes into amastigotes [7] | number of intracellular amastigotes (Giemsa, Supplementary Fig. 1) ([7]; 48 h and 72 h after infection) | entry of promastigotes into macrophages [7] | intracellular survival of L. amazonensis [8] | NO production versus control group [9] | enzymatic activity of L. amazonensis serine proteases [10] | CC50 [11] | IC50 [12] | IC50 [13] | further results
aprotinin | reduced the cell viability | most reduced the intracellular survival |  |  |  |  |  |  |  |  |  |  |  | inhibition of the proteolytic activity ([1]; 1 µM): 100%
C[C@@H]1[C@H](O)[C@@H](C)/C=C/C=C/C=C/C=C/C=C/C=C/C=C/[C@H](O[C@@H]2O[C@H](C)[C@@H](O)[C@H](N)[C@@H]2O)C[C@@H]2O[C@](O)(C[C@@H](O)C[C@@H](O)[C@H](O)CC[C@@H](O)C[C@@H](O)CC(=O)O[C@H]1C)C[C@H](O)[C@H]2C(=O)O [AMB, Amphotericin B] |  |  | 0.12 µM |  |  |  |  |  |  |  |  |  |  | CC50 at 72 h ([4]; peritoneal macrophages, 72 h of incubation, MTT, interval in brackets, read-out: Peritoneal macrophages CC50): 21.8 µM
Cc1ccc(S(=O)(=O)N[C@@H](Cc2ccccc2)C(=O)CCl)cc1 [TPCK, N-p-tosyl-L-phenylalanine chloromethyl ketone] |  |  |  | not able to change cell viability | no difficulty was observed in conversion | reduction in the number of amastigotes | did not alter the entry | impairs the intracellular survival | no difference in NO production | able to inhibit the enzymatic activity | 139 µM | 14.6 µM | 14.2 µM | viability of promastigotes after 1 h of treatment ([6]; 30 µM, after 72 h of incubation): slight reduction in the viability; survival of parasites within macrophages compared with the negative control ([7]; promastigotes pretreated 1 h with 30 µM or 15 µM, 24 h and 48 h after infection): reduced survival; survival of parasites within macrophages compared with the negative control ([7]; promastigotes pretreated 1 h with 30 µM, 15 µM or 7.5 µM, 72 h after infection): reduced survival; viability of L. amazonensis promastigotes ([14]; 100 µM, after 4 h, 48 h and 72 h of incubation): reducing cell viability; inhibition of the proteolytic activity ([1]; concentration not given): 52%; cell viability of L. donovani promastigotes (reduction) ([2]; concentration not given): only did so after 15 h and 20 h; growth of promastigotes and intracellular amastigotes ([15]; L. amazonensis): growth inhibition of promastigotes and intracellular amastigotes; lesion size and parasite load [16]: reduction in lesion size and parasite load
N=C(N)c1ccccc1 [Benzamidine, benzamidine] | reduced the cell viability | most reduced the intracellular survival | > 200 µM | did not change the viability |  |  | did not change the entry |  |  |  |  |  |  | CC50 at 72 h [4]: 240 µM; IC50 [17]: > 200 µM; permanence and survival of amastigotes within host cells ([7]; promastigotes pretreated 1 h with 200 µM or 6.25 µM, up to 72 h): did not alter the permanence and survival; viability of L. amazonensis promastigotes ([14]; 1 mM, 48 h and 72 h of treatment): reduced the viability; inhibition of the proteolytic activity ([1]; 1 mM): 72%
PF-429242 |  |  |  | not able to change cell viability | no difficulty was observed in conversion | reduction in the number of amastigotes | did not alter the entry | impairs the intracellular survival | no difference in NO production | able to inhibit the enzymatic activity | 189 µM | 0.83 µM | 120 µM | survival of parasites within macrophages compared with the control ([7]; promastigotes pretreated 1 h with 3.2 µM, 1.6 µM or 0.8 µM, 48 h and 72 h after infection): reduced survival; growth of promastigotes ([15]; different strains of L. amazonensis): inhibition of the growth of promastigotes
CC(C)C[C@H](NC(=O)[C@H]1O[C@@H]1C(=O)O)C(=O)NCCCCN=C(N)N [E-64] |  |  |  |  |  |  |  |  |  |  |  |  |  | enzymatic activity on serine protease substrate ([10]; 3 µM): no impact on the activity
